Where two headings read alike, the source gives them in different places.
What was measured:
DENV [1] = assay: microbe, parasite or virus in culture; assay type: cell-based, Dengue virus (DENV-2 16681 strain); details: for EC50: read-out: Replication EC50
DENV [2] = assay: microbe, parasite or virus in culture; assay type: cell-based, Dengue virus (DENV-2 16681 strain)
DENV [3] = assay: microbe, parasite or virus in culture; assay type: cell-based, Dengue virus (DENV-2 16681 strain); remark: listed apart in the source
YFV = assay: microbe, parasite or virus in culture; assay type: cell-based, Yellow fever virus (YFV-17D); details: read-out: EC50 against YFV replication
[4] = not given; remark: listed apart in the source
[5] = tested on: pBR322 supercoiled plasmid DNA; assay type: biochemical, Escherichia coli; further: test concentration or dose not given here
in vitro = details: human
Huh7 cells = details: human
[6] = Dengue virus, 72 h, read-out: Entry + Replicaion EC50
[7] = Dengue virus, Huh-7, 72 h, read-out: Entry + Replication EC50
[8] = Dengue virus, Huh-7, 72 h, read-out: Infectivity EC50
[9] = Dengue virus, Huh-7, read-out: Infectivity EC50

Row | SMILES | EC50 (DENV [1]; Dengue virus, Huh-7, 72 h) [µM] | EC50 (DENV [1]; Dengue virus) [µg/mL] | EC50 (DENV [2]; [6]) [µg/mL] | EC50 (DENV [2]; [7]) [µM] | EC50 (DENV [3]; [8]) [µM] | EC50 (DENV [3]; [9]) [µg/mL] | EC50 (YFV; Yellow fever virus, 72 h) [µM] | DPPH scavenging activity IC50 [µg/mL] | ABTS radical scavenging activity IC50 [4] [µg/mL] | inhibition of DNA strand breakage [5] [%] | CC50 (in vitro) [µM] | Replication EC50 (DENV [1]) [µg/mL] | EC50 (DENV [1]) [µM] | Entry + Replicaion EC50 (DENV [2]) [µg/mL] | EC50 (DENV [2]; read-out: Entry + Replication EC50) [µM] | Infectivity EC50 (DENV [3]) [µg/mL] | EC50 (DENV [3]; read-out: Infectivity EC50) [µM] | EC50 (YFV) [µM] | CC50 (Huh7 cells) [µg/mL]
1 | O=C(/C=C/c1ccc(O)c(O)c1)O[C@H](Cc1ccc(O)c(O)c1)C(=O)O [Rosmarinic acid, rosmarinic acid] | 76.2 ± 7.92 | 27.4 | 25.6 | 70.9 ± 9.1 | 37.1 ± 0.94 | 13.4 | 98 ± 21 | 12.28 | 3.05 | 93.12 | > 500 | – | – | – | – | – | – | – | –
2 | O=c1cc(-c2ccc(O)c(O)c2)oc2cc(O)cc(O)c12 [Luteolin, luteolin] | 107 ± 1.82 | 30.7 | 20.8 | 72.7 ± 7.76 | > 100 | > 28.6 | > 100 | 9.48 | 2.20 | 95.87 | – | – | – | – | – | – | – | – | –
3 | O=c1c(O)c(-c2ccc(O)c(O)c2)oc2cc(O)cc(O)c12 [Quercetin, quercetin] | 58.5 ± 7.08 | 17.7 | 32.1 | 109 ± 17.6 | 104 ± 1.49 | 31.4 | > 100 | 8.05 | 1.93 | 96.52 | – | – | – | – | – | – | – | – | –
4 | COc1cc(/C=C/C(=O)O)ccc1O [Ferulic acid, ferulic acid] | – | – | – | – | – | – | – | 10.14 | 2.51 | 94.17 | – | > 19.41 | > 100 | > 19.41 | > 100 | > 19.41 | > 100 | > 100 | –
5 | O=C1C[C@@H](c2ccc(O)cc2)Oc2cc(O)cc(O)c21 [Naringenin, naringenin] | > 100 | > 27.2 | 28.5 | > 100 | > 100 | > 27.2 | 102 ± 34.4 | 17.45 | 3.37 | 92.03 | – | – | – | – | – | – | – | – | –
6 | O=C(O)/C=C/c1ccc(O)c(O)c1 [Caffeic acid, caffeic acid] | 35.9 ± 1.88 | – | > 4.5 | > 100 | 51.5 ± 1.19 | 4.63 | > 100 | 6.37 | 1.28 | 98.98 | – | – | – | – | – | – | – | – | –
7 | O=C(O)/C=C/c1ccc(O)cc1 [Coumaric acid, coumaric acid] | > 100 | > 16.4 | 7.87 | 48 ± 2.43 | 91.64 ± 0.4 | 15 | 154 ± 29.8 | 21.17 | 4.00 | 89.85 | – | – | – | – | – | – | – | – | –
8 | O=c1c(O)c(-c2ccc(O)cc2)oc2cc(O)cc(O)c12 [Kaempferol, kaempferol] | 31.5 ± 6.39 | – | 2.53 | 35.5 ± 4.09 | 3.55 ± 0.07 | 0.25 | > 50 | 7.40 | 1.84 | 97.34 | 90.4 | – | – | – | – | – | – | – | > 6.466
9 | C[C@@H]1O[C@@H](OC[C@H]2O[C@@H](Oc3c(-c4ccc(O)c(O)c4)oc4cc(O)cc(O)c4c3=O)[C@H](O)[C@@H](O)[C@@H]2O)[C@H](O)[C@H](O)[C@H]1O [Rutin, rutin] | > 100 | > 61 | > 61 | > 100 | > 100 | > 61 | > 100 | 21.86 | 4.54 | 88.60 | > 500 | – | – | – | – | – | – | – | –
